These results are taken from PubChem BioAssay (NCI).

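1) Cells in 96-well plates. 2) Compound, 48 h, 5 concentrations. 3) Linear interpolation between surrounding doses. 4) Unreached endpoint = highest concentration. GI50: concentration for 50% inhibition of growth. The concentration for full growth arrest is given as TGI.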

Among the test systems are NCI-H226 lung; UO-31 renal; SN12C renal; DU-145 prostate; SF-268 CNS; RPMI-8226 leukemia; SW-620 colon; SK-MEL-2 melanoma; UACC-62 melanoma; HL-60(TB) leukemia.
Holding throughout (test): NCI tumour cell line growth inhibition, 48 h

Take `CCN(CC)CCN(C)CCc1ccc(Br)cc1`: the TGI in the assay with NCI-H226 lung, in the assay on UO-31 renal, in the assay on SN12C renal, in the assay on DU-145 prostate, in the assay with SF-268 CNS and in the assay with RPMI-8226 leukemia was above 100 µM in each case. Besides, the TGI with SW-620 colon and with SK-MEL-2 melanoma was above 100 µM in each case.
In the case of `C=CCOC(=O)CCCCCCCCCCCCCCCOC(=O)C1=C(CCC[C@@H](C)O[Si](C)(C)C(C)(C)C)NC(=O)N2[C@H](CC3(CC/C=C\[C@H](CC)O[Si](C(C)C)(C(C)C)C(C)C)OCCO3)CC[C@H]12`, the TGI with NCI-H226 lung, in the assay on UO-31 renal, with SN12C renal, in the assay on DU-145 prostate, with SF-268 CNS and in the assay with RPMI-8226 leukemia was above 100 µM in each case. The TGI in the assay on UACC-62 melanoma and in the assay with SK-MEL-2 melanoma was above 100 µM each time.
On to `CCOC(=O)CCCn1cc(C(=O)OC)nn1`, for which the TGI in the assay on NCI-H226 lung, in the assay with UO-31 renal, in the assay on SN12C renal, in the assay on DU-145 prostate, in the assay with SF-268 CNS and in the assay with UACC-62 melanoma was above 100 µM throughout. The TGI with SW-620 colon and with SK-MEL-2 melanoma was above 100 µM in each case.
Take `CCCCCCOc1ccc(C(=N)N(CCCC)CCCC)c2ccccc12`: the GI50 with NCI-H226 lung was 1.53 µM; in the assay with UO-31 renal, 1.14 µM; with DU-145 prostate, 1.49 µM; in the assay on SF-268 CNS, 1.62 µM; with HL-60(TB) leukemia it was 1.81 µM; in the assay on UACC-62 melanoma it was 1.6 µM. Further, the values for the GI50 with SW-620 colon and with SK-MEL-2 melanoma were 1.52 µM and 1.72 µM, respectively. Also, the TGI in the assay on NCI-H226 lung was determined as 3.07 µM; with UO-31 renal, 2.55 µM; in the assay on DU-145 prostate it was 2.86 µM; in the assay on SF-268 CNS, 3.53 µM; with HL-60(TB) leukemia, 3.43 µM; in the assay with UACC-62 melanoma, 3.23 µM. Also, the TGI with SW-620 colon was determined as 3 µM; in the assay on SK-MEL-2 melanoma, 3.23 µM.
Take `COC(=O)C(NC(=O)CSc1nnc(COc2ccc(Cl)cc2)n1-c1ccccc1)C(C)C` (stereo not drawn): the TGI in the assay on NCI-H226 lung was 33 µM; in the assay with UO-31 renal, above 100 µM; in the assay with SN12C renal it was 37.1 µM; in the assay on DU-145 prostate it was above 100 µM; in the assay with SF-268 CNS it was 44.9 µM; with HL-60(TB) leukemia, above 100 µM. Also, the TGI with UACC-62 melanoma was 36.1 µM; with SW-620 colon it was above 100 µM; in the assay on SK-MEL-2 melanoma it was 35.1 µM.
`c1ccc(OCCSCCCCCCCCCCSCCOc2ccccc2)cc1`: the TGI in the assay on NCI-H226 lung, in the assay on UO-31 renal, in the assay with SN12C renal, in the assay on SF-268 CNS, with RPMI-8226 leukemia and with HL-60(TB) leukemia was above 100 µM each time. The TGI in the assay with UACC-62 melanoma, in the assay with SW-620 colon and with SK-MEL-2 melanoma was above 100 µM in each case.
`Cc1ccc2c(c1)CC1(C2=O)[C@H](c2ccccc2)C2C(=O)c3ccc(C)cc3C2[C@H]1c1ccccc1` (stereo partly drawn): the TGI in the assay with NCI-H226 lung, in the assay on UO-31 renal, in the assay on SN12C renal, in the assay with DU-145 prostate, in the assay on SF-268 CNS and with HL-60(TB) leukemia was above 100 µM in each case. Moreover, the TGI in the assay on UACC-62 melanoma and with SW-620 colon was above 100 µM in each case.
As to `Cc1cc(=O)[nH]c(NNC(C#N)c2ccc([N+](=O)[O-])cc2)n1` (stereo not drawn), the TGI in the assay with NCI-H226 lung, in the assay on UO-31 renal, in the assay with SN12C renal, in the assay with SF-268 CNS, in the assay on RPMI-8226 leukemia and with HL-60(TB) leukemia was above 100 µM throughout. Moreover, the TGI with UACC-62 melanoma, in the assay on SW-620 colon and with SK-MEL-2 melanoma was above 100 µM each time.
`C/C(=N/O)c1ccc2c(c1)C(=NO)c1cc(/C(C)=N/O)ccc1-2`: the TGI in the assay with NCI-H226 lung is 26.8 µM; in the assay on UO-31 renal, 28.3 µM; in the assay with SN12C renal, 33.6 µM; with SF-268 CNS it was 28.3 µM; in the assay on RPMI-8226 leukemia, above 100 µM; in the assay with HL-60(TB) leukemia, 91.4 µM. Besides, the TGI with UACC-62 melanoma came to 38.4 µM; with SW-620 colon, 34.8 µM; in the assay on SK-MEL-2 melanoma, 40.1 µM.
For the molecule `COc1ccc(-c2c3ccccc3c(-c3ccc(OCCCCCBr)cc3)c3ccccc23)cc1`, the TGI in the assay with NCI-H226 lung, with UO-31 renal, in the assay with SN12C renal, in the assay with SF-268 CNS, in the assay on RPMI-8226 leukemia and with HL-60(TB) leukemia was above 100 µM throughout. Also, the TGI with UACC-62 melanoma, in the assay on SW-620 colon and with SK-MEL-2 melanoma was above 100 µM in each case.
In the case of `O=C(c1ccco1)C1CC(c2ccc3ccccc3c2O)=NN1c1ccc([N+](=O)[O-])cc1[N+](=O)[O-]` (stereo not drawn), the TGI with NCI-H226 lung, with UO-31 renal, in the assay on SN12C renal, with DU-145 prostate, with SF-268 CNS and with UACC-62 melanoma was above 100 µM each time. Moreover, the TGI in the assay with SW-620 colon was above 100 µM; with SK-MEL-2 melanoma it was 97.3 µM.
As to `CC(C)(C)c1ccc(-c2nnc(-c3cc(C#N)cc(-c4nnc(-c5ccc(C(C)(C)C)cc5)o4)c3)o2)cc1`, the TGI in the assay on NCI-H226 lung, in the assay on UO-31 renal, in the assay with SN12C renal, with DU-145 prostate, with SF-268 CNS and with RPMI-8226 leukemia was above 100 µM in each case. The TGI in the assay on UACC-62 melanoma, in the assay with SW-620 colon and in the assay with SK-MEL-2 melanoma was above 100 µM in each case.
Regarding `CCOc1ccc(-c2oc(/C=N/NS(=O)(=O)c3ccc(C)cc3)c([N+](=O)[O-])c2-c2ccc(OCC)cc2)cc1`, the TGI was 28.4 µM in the assay with NCI-H226 lung; 28.7 µM in the assay with UO-31 renal; 27.5 µM in the assay on SN12C renal; 50.5 µM in the assay on SF-268 CNS; 5.12 µM in the assay on RPMI-8226 leukemia; above 52.9 µM with HL-60(TB) leukemia. The figures for the TGI in the assay on UACC-62 melanoma, with SW-620 colon and in the assay with SK-MEL-2 melanoma were 26 µM, 7.76 µM and 44.8 µM, respectively.
With `CC1(C)CCC2(C(=O)OC3OC(CO)C(O)C(O)C3O)CCC3(CO)C(=CCC4C5(C)CC(O)C(O)C(C)(C(=O)OC6OC(CO)C(O)C(O)C6O)C5CCC43C)C2C1` (stereo not drawn), the TGI with NCI-H226 lung, with UO-31 renal, with SN12C renal, with DU-145 prostate, in the assay with SF-268 CNS and in the assay on HL-60(TB) leukemia was above 100 µM each time. Further, the TGI in the assay with UACC-62 melanoma, in the assay with SW-620 colon and in the assay with SK-MEL-2 melanoma was above 100 µM each time.
